Results taken from PubChem BioAssay AID1645868 (Buhrlage Lab, Dana-Farber Cancer Institute and Novartis …, 2021).
The source made the active and inactive calls.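 The calls were made as follows: active = maximal percent inhibition of the deubiquitinase OTUD3 of at least 30% across the tested doses; inactive = the rest.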

Target: OTU domain-containing protein 3 (Homo sapiens) (UniProt Q5T2D3)
Experiment: Validation of screening hits, potency titration, in vitro enzymatic, OTU domain-containing protein 3 DUB inhibitors (AID 1645868)
Conditions: purified OTUD3, ubiquitin-rhodamine cleavage fluorescence, 2 h

Sequence of OTU domain-containing protein 3 (Homo sapiens) (Q5T2D3 whole entry, looked up, the tested form may be a part): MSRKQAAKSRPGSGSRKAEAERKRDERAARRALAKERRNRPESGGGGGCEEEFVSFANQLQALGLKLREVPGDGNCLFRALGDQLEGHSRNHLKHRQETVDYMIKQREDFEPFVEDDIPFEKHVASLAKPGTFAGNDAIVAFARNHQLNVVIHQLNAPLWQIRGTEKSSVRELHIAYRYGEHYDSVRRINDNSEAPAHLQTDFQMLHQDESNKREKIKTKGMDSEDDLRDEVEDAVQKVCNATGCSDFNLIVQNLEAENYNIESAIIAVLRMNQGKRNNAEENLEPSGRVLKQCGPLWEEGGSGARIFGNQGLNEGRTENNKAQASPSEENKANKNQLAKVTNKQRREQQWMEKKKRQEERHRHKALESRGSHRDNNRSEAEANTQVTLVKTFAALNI

| IC50 | SMILES |
| --- | --- |
| > 50 µM (inactive) | COc1ccc(-c2nnc(SCc3ccccc3C#N)o2)c(OC)c1 |
| > 50 µM (inactive) | COC(=O)c1ccc(Cn2cnc3ccc(F)cc3c2=O)o1 |
| > 50 µM (inactive) | NC(=O)c1nc(-c2cccc(F)c2)nc2c1[nH]c(=O)n2C1CCCCC1 |
| > 50 µM (inactive) | CCc1cc(C(=O)c2ccc(OC)cc2)c(NC(=O)CN2CCCCC2)s1 |
| > 50 µM (inactive) | COc1cccc(-c2nc3cnccn3c2NCc2ccc3c(c2)OCO3)c1 |
| > 50 µM (inactive) | COc1ccc2nc(Nc3ncc4c(n3)CCCC4=O)nc(C)c2c1 |
| 38.8 µM | COc1ccc(NC(=O)c2nnc(C(=O)NCCN3CCCCCC3)s2)cc1 |
| 45.5 µM | COc1cccc(/C=C/C(=O)Nc2ccc(C)c(Cl)c2)c1 |
| > 5 µM (inactive) | Cc1ncc(CO)c2c1Oc1nc(-c3cccc(Cl)c3)nc(SCC(=O)N3CCCCC3)c1C2 |
| > 50 µM (inactive) | CCC(=O)Nc1cccnc1-c1ccc(C(=O)Nc2cccc(OC)c2)cc1 |
| > 50 µM (inactive) | COc1ccc(OCC(=O)Nc2ccc(C)c(OCc3cc(=O)n4ccccc4n3)c2)cc1 |
| 17.6 µM | O=C(Cn1nc2c3c4c(sc3ncn2c1=O)CCCCC4)Nc1ccc(Cl)cc1F |
| > 50 µM (inactive) | c1cncc(-c2nc(Nc3ccc4c(c3)OCCO4)c3ccccc3n2)c1 |
| > 50 µM (inactive) | CCOc1ccccc1NC(=O)Cn1ccn2nc(-c3ccc(OC)cc3)cc2c1=O |
| > 50 µM (inactive) | Cc1sc(-c2cccnc2)nc1OC(=O)c1ccc(Cl)c(Cl)c1 |
| > 50 µM (inactive) | COC(=O)c1cc(C#N)c(NCc2ccccc2)nc1C |
| > 50 µM (inactive) | CCCN1CCN(C(=O)c2cc(NC(=O)C3CCC3)cc3nc(C)ccc23)CC1 |

| IC50 | SMILES |
| --- | --- |
| > 50 µM (inactive) | CN1C(=O)COc2cc(-c3noc(C(=O)NC4CCCCCC4)n3)ccc21 |
| > 50 µM (inactive) | COc1ccc(C(=O)CSc2nnc(-c3cccnc3)n2-c2ccccc2)cc1 |
| 31.9 µM | COc1ccc2nc(SCC(=O)Nc3ccc(NC(C)=O)cc3)c(C)cc2c1 |
| > 50 µM (inactive) | Cc1nn(C)c2c1[C@@H](c1ccc(F)c(Br)c1)[C@H](NC(=O)c1ccccc1)C(=O)N2 |
| 22.4 µM | COc1cccc(NC(=O)Cc2sc(Nc3cc(C)cc(C)c3)nc2O)c1 |
| > 50 µM (inactive) | COc1cccc2sc(N3CCN(c4nc5ccccc5s4)CC3)nc12 |
| > 50 µM (inactive) | COc1cccc(-n2cnc3cc(C(=O)NC4CC4)ccc3c2=O)c1 |
| > 50 µM (inactive) | COc1ccc(-c2ocnc2C(=O)Nc2cccc(Cl)c2C)cc1OC |
| 49.2 µM | COc1cccc(NC(=O)Nc2nccn(-c3ccc(F)cc3)c2=O)c1 |
| > 50 µM (inactive) | COc1cccc(-n2c(CNCc3cccnc3)nc3ccc([N+](=O)[O-])cc3c2=O)c1 |
| 2.42 µM | Cc1cccc(NC(=O)Cn2cnc(-c3noc(-c4ccccc4)n3)c2)c1C |
| > 50 µM (inactive) | Cc1ccc(NC(=O)c2c3c(nc4ccccc24)CCCCC3)c(C)c1 |
| > 50 µM (inactive) | CCn1cnc2ccc(C(=O)NC3CC3)cc2c1=O |
| > 50 µM (inactive) | CC(C)Cc1cc(-c2nnc3sc(-c4ccco4)nn23)n[nH]1 |
| > 50 µM (inactive) | COc1cc(NC(=O)c2cc(CN3CCOCC3)on2)cc(OC)c1 |
| > 50 µM (inactive) | Cc1c(-c2nc(-c3ccccc3Cl)no2)nnn1-c1cccc(F)c1 |
| 38.8 µM | COc1ccccc1NC(=O)CNC(=O)c1nn(-c2ccc(OC)c(OC)c2)c(=O)c2ccccc12 |

Second part, the molecule before the results:

| SMILES | IC50 |
| --- | --- |
| O=C(Nc1nnc2n1CCCS2)c1cc2ccccc2o1 | > 50 µM (inactive) |
| COc1ccc2nc(-c3ccc(NC(=O)c4cccc(OC)c4OC)cc3)cn2n1 | > 50 µM (inactive) |
| CCC(C)c1ccc(O[C@@H]2O[C@@H]3COC(c4ccccc4)O[C@H]3[C@H](O)[C@H]2NC(C)=O)cc1 (some centres not stated) | 23.4 µM |
| COc1ccc(C(=O)NCCc2nnc3ccc(SCC(=O)NCc4ccc(F)cc4)nn23)cc1 | 26.2 µM |
| Cc1cc(C)c(O)c(-c2cc(C(=O)Nc3ccccc3Cl)[nH]n2)c1 | 12.7 µM |
| Cn1c2ccccc2c2ncn(Cc3ccc(F)cc3)c(=O)c21 | > 50 µM (inactive) |
| FC(F)(F)c1cccc(CSc2ccc3nnc(-c4ccccn4)n3n2)c1 | > 50 µM (inactive) |
| COc1cc(C(=O)OCc2csc(-c3ccccc3)n2)ccc1OCC(=O)Nc1ccc(F)cc1 | > 50 µM (inactive) |
| O=C(NCc1ccc(Cl)cc1)c1ccc(N2CCCS2(=O)=O)cc1 | > 50 µM (inactive) |
| CCC1(C)Cc2c(sc3nc(SCC(=O)Nc4ccc(C(C)=O)cc4)nc(N)c23)CO1 (configuration not stated) | 32.4 µM |
| COc1cc(Cl)c(C)cc1NC(=O)Cn1c(=O)n(CC(=O)NCc2ccco2)c(=O)c2ccccc21 | > 50 µM (inactive) |
| O=C(Nc1ccc(Oc2cccc3cccnc23)cc1)c1cccs1 | > 50 µM (inactive) |
| CC(C)Oc1ccc(C(=O)Nc2cccc(S(=O)(=O)N3CCCC3)c2)cc1 | > 50 µM (inactive) |
| O=C1Oc2nc3ccccc3cc2CN1Cc1ccco1 | 34.4 µM |
| O=C(Cn1c(=O)c2sccc2n(Cc2ccc([N+](=O)[O-])cc2)c1=O)NCCc1ccccc1 | 22.4 µM |
| COc1ccc(CN=C2NS(=O)(=O)C(c3ccc(F)cc3)=C2C)cc1OC | > 50 µM (inactive) |
| CC(=O)Nc1ccc(-n2cnc(C(=O)NC(C)c3ccccc3)c2)nc1 (configuration not stated) | > 50 µM (inactive) |
| CCS(=O)(=O)N1CCc2cc(C(=O)Nc3ccc4c(c3)OCCO4)ccc21 | > 50 µM (inactive) |
| Cc1sc(NC(=O)CNc2ccccc2)nc1-c1ccc2c(c1)CCN2C(=O)C(C)C | > 50 µM (inactive) |
| NC(=O)Cn1c(=O)n(Cc2ccc(C(=O)NC3CCCC3)cc2)c(=O)c2ccccc21 | > 50 µM (inactive) |
| COc1ccccc1CNC(=O)c1ccccc1OCc1ccccc1Cl | > 50 µM (inactive) |

| SMILES | IC50 |
| --- | --- |
| Cc1cccc(NC(=O)Nc2ccc(C)n(CC(=O)Nc3ccccc3)c2=O)c1 | > 50 µM (inactive) |
| Fc1cccc(-n2cc(-c3noc(-c4ccccn4)n3)nn2)c1 | 27 µM |
| CCn1cc(NC(=O)CN2CCC3(CC=CCOC3)CC2)c(C)n1 | > 50 µM (inactive) |
| CC(C)CC(NC(=O)c1ccc(Cl)cc1Cl)c1nc2ccccc2[nH]1 (configuration not stated) | > 50 µM (inactive) |
| CC1CCN(c2nnc(-c3nc(C4CC4)no3)c3ccccc23)CC1 | > 50 µM (inactive) |
| COc1ccccc1CC(=O)N(C)C(c1ccccc1)c1ccccc1 | > 50 µM (inactive) |
| N#Cc1ccc(Cc2ncc(C(F)(F)F)cc2Cl)s1 | > 50 µM (inactive) |
| Cn1cc(-c2cnc(-c3cccc(F)c3)nc2)cc1C(=O)NCc1cccnc1 | > 50 µM (inactive) |
| COc1ccc(-c2nonc2NC(=O)C(c2ccccc2)c2ccccc2)cc1OC | > 50 µM (inactive) |
| CN(Cc1ccccc1)S(=O)(=O)c1ccc(S(=O)(=O)N2CCN(C(=O)c3cccnc3)CC2)cc1 | > 50 µM (inactive) |
| Cc1nnc(C(=O)Nc2ccc(C(=O)NCc3ccccc3C)cc2)s1 | 28.5 µM |
| Cc1nc(-c2ccc(NC(=O)N3CCN(c4ccccn4)CC3)cc2)no1 | > 50 µM (inactive) |
| O=C(Nc1nc2c(ccc3ccccc32)s1)c1cccc(Br)c1 | 24.6 µM |
| CC(=O)N1CCc2cc(S(=O)(=O)NCc3ccc(C)cc3)ccc21 | > 50 µM (inactive) |
| O=C(CN(Cc1ccc(Cl)cc1)S(=O)(=O)c1ccc(Cl)cc1)N1CCOCC1 | > 50 µM (inactive) |
| CCOC(=O)c1cnc(C(F)(F)F)nc1Sc1n[nH]c(-c2cccs2)n1 | > 50 µM (inactive) |
| Nc1ccccc1SCc1noc(-c2cccs2)n1 | > 50 µM (inactive) |
| COC(=O)c1cc(C)sc1NC(=O)c1cccc(OC)c1OC | > 50 µM (inactive) |
| O=C(Cn1cncc(C(=O)NC2CCCC2)c1=O)Nc1cccc(F)c1 | 38.7 µM |
| Cn1cc2cccc(NC(=O)c3ccc(F)cc3)c2n1 | > 50 µM (inactive) |
| Cc1ccccc1NC(=O)Nc1ccccc1OCc1cc(=O)n2cccc(C)c2n1 | 4.24 µM |

| SMILES | IC50 |
| --- | --- |
| CCn1ccc2c(cc(C(=O)Nc3cc(F)ccc3F)n2C)c1=O | > 50 µM (inactive) |
| CSc1cccc(NC(=O)COc2cccc3ccccc23)c1 | 39.6 µM |
| Cc1cc(=O)n(CC(=O)Nc2ccccc2F)c(Nc2ccc(F)cc2)n1 | 16.3 µM |
| CCCCCCCCCC(CCCCCCCCCC(=O)O)O[C@H]1O[C@@H](COC(C)=O)[C@H](O)[C@@H](O)[C@H]1OC(=O)CC(=O)O (some centres not stated) | 22.5 µM |
| Cc1ccc(CNC(=O)Cn2c(=O)n(-c3ccccc3)c3ncccc32)cc1 | > 50 µM (inactive) |
| O=c1c(-c2nc(C3CC3)no2)cccn1Cc1c(F)cccc1Cl | > 50 µM (inactive) |
| C/C=C1/C2=CCCN3C(=O)O[C@H]([C@H]1O)[C@H]23 | > 50 µM (inactive) |
| CCOc1ccccc1C(=O)Nc1ccc2c(c1)Sc1ncccc1C(=O)N2C | > 50 µM (inactive) |
| Cc1ccc(S(=O)(=O)N2CCCCC2)cc1NC(=O)Cc1cccc(F)c1 | > 50 µM (inactive) |
| COc1ncccc1CN1CCn2c(Cn3cccn3)cnc2C1C (configuration not stated) | > 50 µM (inactive) |
| COC1=C(C2=C(OC)C(=O)c3cc4c(c(O)c3C2=O)C(=O)OC(C)C4)C(=O)c2c(cc3c(c2O)C(=O)OC(C)C3)C1=O (configuration not stated) | 3.28 µM |
| CC1=C[C@@H](C)CC[C@H]2O[C@@H](C3=C(O)C(=O)C(C)=C4O[C@](O)(C=C43)[C@@H](C)C[C@H](C)C1)[C@H](C)[C@@H](O)[C@H]2C | 20 µM |
| COCCCN1CCS(=O)(=O)c2c(Cl)c(F)nc(Oc3ccccc3F)c21 | > 50 µM (inactive) |
| CC(C)c1cc(NCc2ccccc2)n2nc(-c3cccnc3)nc2n1 | 25.4 µM |
| Cc1ccccc1NC(=O)C(C)n1c(=O)cc(-c2ccccc2)c2c(C)nn(C)c21 (configuration not stated) | 38 µM |
| O=C(CCCn1c(=O)[nH]c2cc(Cl)ccc2c1=O)N1CCc2ccccc2C1 | 29 µM |
| NC(=O)C1(N2CCCCC2)CCN(C(=O)c2[nH]nc3c2CCc2ccccc2-3)CC1 | > 50 µM (inactive) |
| C=Cc1ccc(Cn2cc(S(=O)(=O)N3CCOCC3)ccc2=O)cc1 | > 50 µM (inactive) |
| CC(=O)N1CCc2cc(CNC(=O)Nc3cc(C)ccc3C)ccc21 | > 50 µM (inactive) |
| COc1ccccc1CNC(=O)CCCn1c(=O)c2ccccc2n(CC(=O)N2CCN(c3ccccc3)CC2)c1=O | 25.5 µM |
| Cc1ccc(-c2nc(-c3cccs3)cc(C(F)(F)F)c2C#N)cc1 | > 50 µM (inactive) |
